Measured values taken from patent US20240116985A1, “STAPLED PEPTIDES AND METHODS THEREOF” (priority 2020, published 2024).
pIC50: −log10 of the molar value. Converted amounts (≈) assume the structure as drawn. Like-named read-outs stand apart in the source and are kept apart here.

What was measured:
[1] = target: T1, full-length beta-Catenin (Uniprot ID P35222) (Homo sapiens, UniProt P35222); assay: Fluorescence polarization IC50 (beta-catenin / 5FAM-TCF4 10-53 competition); format: binding
T1 construct: 10 nM full-length beta-Catenin (Uniprot ID P35222)
T1 sequence (P35222 1-781): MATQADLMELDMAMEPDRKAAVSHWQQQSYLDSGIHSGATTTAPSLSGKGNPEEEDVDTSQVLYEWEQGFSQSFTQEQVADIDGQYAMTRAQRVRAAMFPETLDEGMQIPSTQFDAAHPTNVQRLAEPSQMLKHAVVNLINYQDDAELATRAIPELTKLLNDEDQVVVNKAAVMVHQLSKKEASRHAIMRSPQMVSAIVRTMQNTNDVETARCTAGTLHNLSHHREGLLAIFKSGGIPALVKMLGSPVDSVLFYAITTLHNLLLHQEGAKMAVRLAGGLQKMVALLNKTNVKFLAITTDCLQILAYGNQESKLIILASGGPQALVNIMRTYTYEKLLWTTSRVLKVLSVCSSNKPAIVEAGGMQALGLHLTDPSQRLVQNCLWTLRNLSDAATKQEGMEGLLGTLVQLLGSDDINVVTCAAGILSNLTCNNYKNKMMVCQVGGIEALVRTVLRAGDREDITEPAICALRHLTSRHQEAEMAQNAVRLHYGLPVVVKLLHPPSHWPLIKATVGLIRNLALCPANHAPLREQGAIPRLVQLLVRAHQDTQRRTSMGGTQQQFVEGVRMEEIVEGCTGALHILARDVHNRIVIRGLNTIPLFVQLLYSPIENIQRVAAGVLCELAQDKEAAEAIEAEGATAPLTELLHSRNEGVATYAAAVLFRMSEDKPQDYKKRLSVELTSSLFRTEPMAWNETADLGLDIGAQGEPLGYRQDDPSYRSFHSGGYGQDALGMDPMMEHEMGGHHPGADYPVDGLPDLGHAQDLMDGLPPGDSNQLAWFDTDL

[2] = CHI Log D procedure; format: physicochemical; details: for chromatographic logD: pH 7.4, CHI Log D; for CHI Log D: pH 7.4
[3] = Solubility in PBS; format: physicochemical
How it was run: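 The PBS solution was ultracentrifuged and the supernatant analyzed by HPLC. Its peak area was divided by that of a 50 μM peptide DMSO reference injection and multiplied by 50 uM to give solubility.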

[4] = target: T2, beta-catenin/TCF4 engagement (Homo sapiens, UniProt P35222); assay: Nano-BRET target engagement assay (B-cat-Halo & TCF4-Luc in HEK293 cells); format: cell-based; details: for inhibition at 10 µM: read-out: NanoBRET % inh @ 10 uM
T2 construct: expressed in transfected cells; host or cells: HEK293
T2 sequence (P35222 1-781): T1 sequence (P35222 1-781)

[5] = fluorescence polarization, read-out: beta-Catenin FP IC50
[6] = absolute IC50, read-out: NanoBRET Abs IC50

| Structure (SMILES) | pIC50 ([1]; read-out: beta-Catenin FP IC50) | chromatographic logD [2] | Solubility ([3]; Solubility (uM)) | inhibition at 10 µM ([4]; HEK293, @ 10 uM) | pIC50 ([4]; read-out: NanoBRET Abs IC50) | pIC50 [1, 5] | pIC50 [4, 6] | pIC50 ([1]; read-out: FP EC50) | CHI Log D [2] | Solubility [3] | pIC50 ([4]; read-out: NanoBRET IC50) | inhibition at 10 µM ([4]; HEK293, 10 uM) |
| --- | --- | --- | --- | --- | --- | --- | --- | --- | --- | --- | --- | --- |
| CC(=O)N1CCC[C@]12CC=CCCCC1(CCCC=CCCCOC(=O)N3CC[C@@](C(=O)N[C@@H](Cc4ccsc4)C(=O)N[C@@H](Cc4csc5ccccc45)C(N)=O)(C3)NC(=O)[C@H](CC(N)=O)NC(=O)[C@H](Cc3ccccc3)NC(=O)[C@H](C)NC(=O)[C@H](C)NC(=O)[C@H](CC(=O)O)NC(=O)[C@H](CC(=O)O)NC1=O)NC(=O)[C@H](CC(C)(C)C)NC(=O)[C@H](CC(=O)O)NC2=O (stereo partly drawn) [I-785, Ac-PL3-Asp-Npg-B5-Asp-Asp-Ala-Ala-Phe-Asn-PyrS2-3Thi-BztA-NH2] | 8.22 | 2.28 | 42 µM (≈ 75.2 µg/mL) | 31% | 4.67 |  |  |  |  |  |  |  |
| CC(=O)N1CCC[C@]12CC=CCCCC1(CCCC=CCCCOC(=O)N3CC[C@@](C(=O)N[C@@H](Cc4ccsc4)C(=O)N[C@@H](Cc4csc5ccccc45)C(=O)N[C@@H](CCC(N)=O)C(=O)N[C@@H](CCCCNC(=O)c4ccc(CN5CCOCC5)cc4)C(N)=O)(C3)NC(=O)[C@H](CC(N)=O)NC(=O)[C@H](Cc3ccccc3)NC(=O)[C@H](C)NC(=O)[C@H](C)NC(=O)[C@H](CC(=O)O)NC(=O)[C@H](CC(=O)O)NC1=O)NC(=O)[C@H](CC(C)(C)C)NC(=O)[C@H](CC(=O)O)NC2=O (stereo partly drawn) [I-909, Ac-PL3-Asp-Npg-B5-Asp-Asp-Ala-Ala-Phe-Asn-PyrS2-3Thi-BztA-Gln-[MeMorphBz]Lys-NH2] | 8.10 | 1.93 | 44 µM (≈ 99 µg/mL) |  | 4.55 |  |  |  |  |  |  |  |
| CC(=O)N1CCC[C@]12CC=CCCCC1(CCCC=CCCCCCC[C@@](C)(C(=O)N[C@@H](Cc3ccccc3)C(=O)N[C@@H](Cc3csc4ccccc34)C(=O)N[C@@H](Cc3c[nH]cn3)C(N)=O)NC(=O)[C@H](CC(N)=O)NC(=O)[C@H](Cc3ccccc3)NC(=O)[C@H](C)NC(=O)[C@H](C)NC(=O)[C@H](CCC(=O)O)NC(=O)[C@H](CC(=O)O)NC1=O)NC(=O)[C@H](CC(C)C)NC(=O)[C@H](CC(=O)O)NC2=O (stereo partly drawn) [I-543, Ac-PL3-Asp-Leu-B5-Asp-Glu-Ala-Ala-Phe-Asn-S8-Phe-BztA-His-NH2] |  | 2.47 | 28 µM (≈ 52.6 µg/mL) |  |  | 7.49 | 4.77 |  |  |  |  |  |
| CC[C@@H]1NC(=O)[C@H](CC(=O)O)NC(=O)[C@]2(CC=CCCCC3(CCCC=CCCCCCC[C@@](C)(C(=O)N[C@@H](Cc4ccccc4)C(=O)N[C@@H](Cc4csc5ccccc45)C(=O)N[C@@H](Cc4c[nH]cn4)C(N)=O)NC(=O)[C@H](CCC(N)=O)NC(=O)[C@H](Cc4ccccc4)NC(=O)[C@H](C)NC(=O)[C@H](C)NC(=O)[C@H](CCC(=O)O)NC(=O)[C@H](CC(=O)O)NC3=O)NC1=O)CCCN2C(C)=O (stereo partly drawn) [I-571, Ac-PL3-Asp-Abu-B5-Asp-Glu-Ala-Ala-Phe-Gln-S8-Phe-BztA-His-NH2] |  |  |  |  |  | 7.49 | 4.81 | 7.49 | 2.245 | 24 µM (≈ 44.7 µg/mL) |  |  |
| CC[C@H](C)[C@@H]1NC(=O)[C@H](CC(=O)O)NC(=O)[C@]2(CC=CCCCC3(CCCC=CCCCCCC[C@@](C)(C(=O)N[C@@H](Cc4ccccc4)C(=O)N[C@@H](Cc4csc5ccccc45)C(=O)N[C@@H](CCC(N)=O)C(N)=O)NC(=O)[C@H](CCC(N)=O)NC(=O)[C@H](Cc4ccccc4)NC(=O)[C@H](C)NC(=O)[C@H](C)NC(=O)[C@H](CCC(=O)O)NC(=O)[C@H](CC(=O)O)NC3=O)NC1=O)CCCN2C(C)=O (stereo partly drawn) [I-407, Ac-PL3-Asp-Ile-B5-Asp-Glu-Ala-Ala-Phe-Gln-S8-Phe-BztA-Gln-NH2] |  | 2.39 |  | 55.1% |  | 7.52 |  |  |  | 50 µM (≈ 94.2 µg/mL) |  |  |
| CC(=O)N1CCC[C@]12CC=CCCCC1(CCCC=CCCCOC(=O)N3CC[C@@](C(=O)N[C@@H](Cc4ccsc4)C(=O)N[C@@H](Cc4csc5ccccc45)C(=O)N[C@@H](CCC(N)=O)C(N)=O)(C3)NC(=O)[C@H](CC(N)=O)NC(=O)[C@H](Cc3ccccc3)NC(=O)[C@H](C)NC(=O)[C@H](C)NC(=O)[C@H](Cc3c[nH]cn3)NC(=O)[C@H](CC(=O)O)NC1=O)NC(=O)[C@H](CC(C)(C)C)NC(=O)[C@H](CC(=O)O)NC2=O (stereo partly drawn) [I-864, Ac-PL3-Asp-Npg-B5-Asp-His-Ala-Ala-Phe-Asn-PyrS2-3Thi-BztA-Gln-NH2] | 7.92 | 2.62 |  |  | 4.40 |  |  |  |  | 10 µM (≈ 19.4 µg/mL) | 4.54 |  |
| CC(=O)N1CCC[C@]12CC=CCCCC1(CCCC=CCCCOC(=O)N3CC[C@@](C(=O)N[C@@H](Cc4ccccc4Cl)C(=O)N[C@@H](Cc4csc5ccccc45)C(=O)N[C@@H](CCC(N)=O)C(N)=O)(C3)NC(=O)[C@H](CC(N)=O)NC(=O)[C@H](Cc3ccccc3)NC(=O)[C@H](C)NC(=O)[C@H](C)NC(=O)[C@H](CC(=O)O)NC(=O)[C@H](CC(=O)O)NC1=O)NC(=O)[C@H](Cc1ccccc1)NC(=O)[C@H](CC(=O)O)NC2=O (stereo partly drawn) [I-1041, Ac-PL3-Asp-Phe-B5-Asp-Asp-Ala-Ala-Phe-Asn-PyrS2-2C1F-BztA-Gln-NH2] | 8.10 | 2.08 |  |  |  |  | < 4.70 |  |  | 50 µM (≈ 98.3 µg/mL) |  |  |
| CC(=O)N1CCC[C@]12CC=CCCCC1(CCCC=CCCCOC(=O)N3CC[C@@](C(=O)N[C@@H](Cc4ccsc4)C(=O)N[C@@H](Cc4csc5ccccc45)C(=O)N[C@@H](Cc4c[nH]cn4)C(=O)N[C@H](C)C(N)=O)(C3)NC(=O)[C@H](CC(N)=O)NC(=O)[C@H](Cc3ccccc3)NC(=O)[C@H](C)NC(=O)[C@H](C)NC(=O)[C@H](CC(=O)O)NC(=O)[C@H](CC(=O)O)NC1=O)NC(=O)[C@H](CC(C)(C)C)NC(=O)[C@H](CC(=O)O)NC2=O (stereo partly drawn) [I-823, Ac-PL3-Asp-Npg-B5-Asp-Asp-Ala-Ala-Phe-Asn-PyrS2-3Thi-BztA-His-dAla-NH2] | 8.30 | 2.09 | 32 µM (≈ 63.9 µg/mL) |  | 4.74 |  |  |  |  |  | < 5.00 | 37.5% |
| CC(=O)N1CCC[C@]12CC=CCCCC1(CCCC=CCCCOC(=O)N3CC[C@@](C(=O)N[C@@H](Cc4ccccc4)C(=O)N[C@@H](Cc4csc5ccccc45)C(=O)N[C@@H](CCC(N)=O)C(N)=O)(C3)NC(=O)[C@H](CC(N)=O)NC(=O)[C@H](Cc3ccccc3)NC(=O)[C@H](C)NC(=O)[C@H](C)NC(=O)[C@H](CCC(=O)O)NC(=O)[C@H](CC(=O)O)NC1=O)NC(=O)[C@H](CC(C)(C)C)NC(=O)[C@H](CC(=O)O)NC2=O (stereo partly drawn) [I-685, Ac-PL3-Asp-Npg-B5-Asp-Glu-Ala-Ala-Phe-Asn-PyrS2-Phe-BztA-Gln-NH2] |  |  |  |  |  | 7.60 | 4.71 | 7.60 | 2.1 | 44 µM (≈ 84.8 µg/mL) |  |  |
| CC(=O)N1CCC[C@]12CC=CCCCC1(CCCC=CCCCCCC[C@@](C)(C(=O)N[C@@H](Cc3ccsc3)C(=O)N[C@@H](Cc3csc4ccccc34)C(=O)N[C@@H](CCC(N)=O)C(N)=O)NC(=O)[C@H](CC(N)=O)NC(=O)[C@H](Cc3ccccc3)NC(=O)[C@H](C)NC(=O)[C@H](C)NC(=O)[C@H](CC(=O)O)NC(=O)[C@H](CC(=O)O)NC1=O)NC(=O)[C@H](CC(C)(C)C)NC(=O)[C@H](CC(=O)O)NC2=O (stereo partly drawn) [I-679, Ac-PL3-Asp-Npg-B5-Asp-Asp-Ala-Ala-Phe-Asn-S8-3Thi-BztA-Gln-NH2] |  |  |  | 44.8% |  | 8.15 | 4.77 | 8.15 | 2.382 | 48 µM (≈ 90 µg/mL) |  |  |
| CC(=O)N1CCC[C@]12CC=CCCCC1(CCCC=CCCCOC(=O)N3CC[C@@](C(=O)N[C@@H](Cc4ccccc4F)C(=O)N[C@@H](Cc4csc5ccccc45)C(=O)N[C@@H](CCC(N)=O)C(N)=O)(C3)NC(=O)[C@H]([C@@H](C)O)NC(=O)[C@H](Cc3ccccc3)NC(=O)[C@H](C)NC(=O)[C@H](C)NC(=O)[C@H](CC(=O)O)NC(=O)[C@H](CC(=O)O)NC1=O)NC(=O)[C@H](CC(C)(C)C)NC(=O)[C@H](CC(=O)O)NC2=O (stereo partly drawn) [I-1021, Ac-PL3-Asp-Npg-B5-Asp-Asp-Ala-Ala-Phe-Thr-PyrS2-2FF-BztA-Gln-NH2] | 8.30 | 2.05 | 44 µM (≈ 84.4 µg/mL) |  |  |  | 4.94 |  |  |  |  |  |
| CC[C@H](C)[C@@H]1NC(=O)[C@H](CC(=O)O)NC(=O)[C@]2(CC=CCCCC3(CCCC=CCCCCCC[C@@](C)(C(=O)N[C@@H](Cc4ccsc4)C(=O)N[C@@H](Cc4csc5ccccc45)C(=O)N[C@@H](CCC(N)=O)C(N)=O)NC(=O)[C@H](CC(N)=O)NC(=O)[C@H](Cc4ccccc4)NC(=O)[C@H](C)NC(=O)[C@H](C)NC(=O)[C@H](CCC(=O)O)NC(=O)[C@H](CC(=O)O)NC3=O)NC1=O)CCCN2C(C)=O (stereo partly drawn) [I-521, Ac-PL3-Asp-Ile-B5-Asp-Glu-Ala-Ala-Phe-Asn-S8-3Thi-BztA-Gln-NH2] |  |  |  |  |  | 7.64 | 4.81 | 7.64 | 2.351 | 50 µM (≈ 93.8 µg/mL) |  |  |
